Read-outs that look alike come from different tables or passages of the source.

From patent EP0006128A1, “2,3-Dihydro-2-methyl-3-(2-(dimethylamino)-propyl)-3-phenyl-1H-indol-1-carboxaldehyde, process for its preparation and pharmaceutical preparations containing it” (Dr. Karl Thomae GmbH, priority 1978, dated 1980) come the findings set out here.

One series has as its system wachen weißen Ratten. Briefly: Cough test in conscious rats, cough provoked by inhaled citric acid spray. The conditions noted are these: Rattus norvegicus, po, 0.5 h; male rats, per os as Tylose suspension, 7,5 % citric acid spray over 2 min, cough count 30 min after application, dose halving the number of coughs. The class given is in vivo. From the text: Die Hustenversuche wurden an wachen weißen Ratten (Geschlecht: männlich) durchgeführt. Die Hustenprovokation erfolgte durch Inhalation eines 7,5 %igen Zitronensäuresprays über 2 Minuten. 10 Tiere pro Dosis erhielten die Substanz als Tyloseaufschwemmung peroral appliziert. Die Bewertung erfolgte aus der durchschnittlichen prozentualen Abnahme der Zahl der Hustenstöße 30 Minuten nach Applikation gegenüber den Leerwerten. (Weitere methodische Angaben: ENGELHORN und PÜSCHMANN, Arzneim.-Forsch. 13, 474-480,(1963)). Die ED50 ist die Dosis, nach deren Verabreichung die Zahl der Hustenstöße durchschnittlich um die Hälfte vermindert wird, die Berechnung erfolgte nach der Methode von Litchfield und Wilcoxon. Es wurde für das Racemat eine ED50 von 3,9 mg/kg per os gefunden.

A further series concerns Katze. Put plainly: Antitussive effect in the cat, method of Domenjoz. It is filed as in vivo. Particulars: dose range 0,5 bis 2 mg/kg i.v.
Series [1] has as its system durch Acetylcholin hervorgerufenen Bronchialspasmen. Briefly: Broncholytic effect in guinea pigs, method of Konzett and Rössler (acetylcholine-induced bronchospasm). It is filed as in vivo, Meerschweinchen. Particulars: Cavia porcellus, iv, i.v. injection, dose giving 50 % reduction, read-out: Herabsetzung der durch Acetylcholin hervorgerufenen Bronchialspasmen um 50 %. The protocol: Die broncholytische Wirkung wurde an Meerschweinchen nach der Methode von KONZETT und RÖSSLER (Arch. exp. Path. Pharmakol. 195, 71, (1940)) geprüft. Die Herabsetzung der durch Acetyl- cholin hervorgerufenen Bronchialspasmen um 50 % wurde durch i.v.-Injektion von 1,5 mg/kg des Racemats erreicht, beim (-)-Enantiomeren reichten bereits 1 mg/kg aus, um etwa den gleichen Effekt zu erreichen.

The nature of the next series: Acute toxicity in mice. Particulars: mouse, in vivo, mice of both sexes, 20 g, 14 days observation. The protocol: Für die Bestimmung der akuten Toxizität wurden Mäuse beider Geschlechter mit einem Körpergewicht von 20 g verwendet. 10 Tiere pro Dosis erhielten die Substanz einmalig appliziert. Die Berechnung der DL50, der Dosis, nach deren Verabreichung 50 % der Tiere innerhalb der Beobachtungszeit verstarben, erfolgte i nach der Methode von LITCHFIELD und WILCOXON nach einer Beobachtungszeit von 14 Tagen: • Racemat CL50 p.o.: 545 mg/kg DL50 i.v.: 66 mg/kg, […]

The mark [2] stands for this setting: po, single dose p.o., read-out: DL50 p.o.

For `CC(CC1(c2ccccc2)c2ccccc2N(C=O)C1C)N(C)C` (racemic) [Racemat, Rac. 2,3-Dihydro-2-methyl-3-[2-(dimethylamino)-propyl]-3-phenyl-1H-indol-1-carboxaldehyd], the values for the ED50 (in the series with wachen weißen Ratten; in series [1]) were 3.9 mg/kg and 1.5 mg/kg, respectively. Further, in the series with Katze, the “antitussive Wirkung” value is “deutliche hustenstillende Wirkung”. The LD50 at 336 h was 66 mg/kg in “Acute toxicity in mice” (iv, single dose i.v., read-out: DL50 i.v.) and 545 mg/kg in “Acute toxicity in mice” (setting [2]).

For the compound `CC(CC1(c2ccccc2)c2ccccc2N(C=O)C1C)N(C)C` (single isomer, unassigned; (+)) [(+)-Enantiomeres, (+)-2,3-Dihydro-2-methyl-3-[2-(dimethylamino)-propyl]-3-phenyl-1H-indol-1-carboxaldehyd], the “antitussive Wirkung” value in the series on Katze was “deutliche hustenstillende Wirkung”. Moreover, the LD50 at 336 h in the series “Acute toxicity in mice” (setting [2]) was ~500 mg/kg.

Consider `CC(CC1(c2ccccc2)c2ccccc2N(C=O)C1C)N(C)C` (single isomer, unassigned; (-)) [(-)-Enantiomeres, (-)-2,3-Dihydro-2-methyl-3-/2-(dimethylamino)-propyl/-3-phenyl-1H-indol-1-carboxaldehyd], for which the ED50 in series [1] is ~1 mg/kg. Also, the LD50 at 336 h in “Acute toxicity in mice” (setting [2]) is ~560 mg/kg.
